From ChEMBL document CHEMBL1201861, “Genomics of Drug Sensitity in Cancer screening data, Wellcome Trust Sanger Institute”
Each block holds one molecule with its values, some of them ahead of it.

Tests used:
Experiment in all cases: cells
NB12 = assay type: functional, cell-based; settings: Homo sapiens;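 further: growth inhibition of human NB12 cells, read out by a cell viability assay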
Description: SANGER: Inhibition of human NB12 cell growth in a cell viability assay.

KYSE-150 cell line = assay type: functional, cell-based; settings: Homo sapiens;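 further: growth inhibition of human KYSE-150 cells, read out with a cell viability assay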
Description: SANGER: Inhibition of human KYSE-150 cell growth in a cell viability assay.

A253 cell line = assay type: functional, cell-based, Homo sapiens; settings: Homo sapiens, A253;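 further: growth inhibition of A253 cells, read out with a cell viability assay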
Description: SANGER: Inhibition of human A253 cell growth in a cell viability assay.

KU812 cell line = assay type: functional, cell-based, Homo sapiens; settings: Homo sapiens, KU812;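 further: growth inhibition of KU812 cells, read out with a cell viability assay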
Description: SANGER: Inhibition of human KU812 cell growth in a cell viability assay.

LCLC-103H cell line = assay type: functional, cell-based; settings: Homo sapiens
Description: SANGER: Inhibition of human LCLC-103H cell growth in a cell viability assay.

KYSE-70 cell line = assay type: functional, cell-based; settings: Homo sapiens;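 further: cell viability assay read-out, with IC50 expressing suppression of KYSE-70 cell growth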
Description: SANGER: Inhibition of human KYSE-70 cell growth in a cell viability assay.

LXF-289 cell line = assay type: functional, cell-based; settings: Homo sapiens
Description: SANGER: Inhibition of human LXF-289 cell growth in a cell viability assay.

KYSE-520 cell line = assay type: functional, cell-based; settings: Homo sapiens;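 further: growth inhibition of human KYSE-520 cells, read out with a viability assay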
Description: SANGER: Inhibition of human KYSE-520 cell growth in a cell viability assay.

MHH-ES-1 = assay type: functional, cell-based; settings: Homo sapiens;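 further: cell growth inhibition measured by a cell viability assay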
Description: SANGER: Inhibition of human MHH-ES-1 cell growth in a cell viability assay.

NB69 = assay type: functional, cell-based, Homo sapiens; settings: Homo sapiens, NB69;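 further: growth inhibition of NB69 cells, determined by a cell viability assay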
Description: SANGER: Inhibition of human NB69 cell growth in a cell viability assay.

COLO-800 = assay type: functional, cell-based, Homo sapiens; settings: Homo sapiens, COLO-800;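 further: growth inhibition of COLO-800 cells, read out with a cell viability assay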
Description: SANGER: Inhibition of human COLO-800 cell growth in a cell viability assay.

- IC50 (NB12): 1310 nM
SMILES: O=C1/C(=C/c2cccs2)CC/C1=C\c1cccs1

- IC50 (KYSE-150 cell line): 727 nM
- IC50 (A253 cell line): 1260 nM
- IC50 (KU812 cell line): 203 nM
- IC50 (LCLC-103H cell line): > 2000 nM
- IC50 (KYSE-70 cell line): > 2000 nM
- IC50 (LXF-289 cell line): > 2000 nM
- IC50 (KYSE-520 cell line): 236 nM
SMILES: O=C(NOC[C@H](O)CO)c1ccc(F)c(F)c1Nc1ccc(I)cc1F [MIRDAMETINIB]

- IC50 (MHH-ES-1): 501 nM
- IC50 (NB69): 946 nM
- IC50 (COLO-800): 632 nM
SMILES: CNCc1ccc(-c2[nH]c3cc(F)cc4c3c2CCNC4=O)cc1 [RUCAPARIB]
